In PubChem BioAssay AID449774 (The Scripps Research Institute Molecular Screening Center, 2010):
≈ marks a conversion by molar mass, not a printed value.

Tested on: wildtype E. coli growth inhibition, MIC
Experiment: wildtype E. coli growth inhibition, late-stage follow-up, counter-screen for IMP-1/VIM-2 inhibitor project, MIC, dose response (AID 449774)

Compound | MIC [µM]
Cc1cc[c]([Hg+])cc1 | 1.56
CC(=O)Nc1cc[c]([Hg+])cc1 | 1.56
[Hg+][c]1ccccc1 | 0.39
O=C(O)c1ccc[c]([Hg+])c1 | 3.13
O=C(O)c1cc[c]([Hg][Cl])cc1 | 12.5
C[C@@H](O)[C@H]1C(=O)N2C(C(=O)O)=C(SCCN=CN)C[C@H]12 | 0.78 (≈ 0.233 µg/mL)
COc1cccc[c]1[Hg+] | 0.78
